{"source": "paper PMC10349806", "about": "(Nature Communications, 2023)", "biological_target": "T1, PfCRT variant D410A (Plasmodium falciparum, UniProt Q9N623, A220S/D410A/I356T/K76T/M74I/N326S/N75E/Q271E/R371I)", "T1 sequence (Q9N623 1-424 M74I/N75E/K76T/A220S/Q271E/N326S/I356T/R371I/D410A)": "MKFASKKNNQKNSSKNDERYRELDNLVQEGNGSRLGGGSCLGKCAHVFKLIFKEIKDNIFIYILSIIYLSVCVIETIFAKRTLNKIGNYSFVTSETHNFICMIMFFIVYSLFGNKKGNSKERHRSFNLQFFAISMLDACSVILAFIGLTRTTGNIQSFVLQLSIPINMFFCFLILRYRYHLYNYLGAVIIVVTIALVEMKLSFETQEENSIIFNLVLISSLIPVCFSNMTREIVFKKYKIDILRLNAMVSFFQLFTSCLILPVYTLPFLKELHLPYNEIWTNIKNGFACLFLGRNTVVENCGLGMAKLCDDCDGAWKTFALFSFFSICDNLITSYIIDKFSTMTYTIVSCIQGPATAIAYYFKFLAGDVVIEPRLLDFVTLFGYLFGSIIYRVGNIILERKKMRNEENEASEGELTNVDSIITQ", "test": "CQ uptake assay, oocytes expressing D410A", "type": "cell-based", "method": "Site-directed mutagenesis of PfCRT^Dd2 was performed as described using the megaprimer method with overlap extension[21],[54]. The primer pairs used are listed in Supplementary Table 6. Please note that a codon-optimized and oocyte-adapted version of PfCRT^Dd2 was used[22] (Supplementary Fig. 16). The resulting DNA fragment was cloned into the SP64T expression vector and verified by sequencing.\nOocytes were obtained as described previously. Briefly, adult (>2 years old) female X. laevis frogs (NASCO) were anesthetized in a cooled solution of ethyl 3-amino benzoate methanesulfonate (0.1%, w/v), followed by a surgical removal of parts of the ovary. The ovary lobes were carefully dissected and small pieces of oocytes were incubated in Ca^2+-free ND96 buffer (96 mM NaCl, 2 mM KCl, 1 mM MgCl2 buffered with 5 mM HEPES/NaOH, pH 7.5) supplemented with collagenase D (0.1%, w/v; Roche), BSA (0.5%, w/v), and 9 mm Na2HPO4 at 18 °C for 14-16 h while gentle shaking. After incubation, the oocytes were carefully washed several times with ND96 buffer (96 mM NaCl, 2 mM KCl, 1.8 mM CaCl2, 1 mM MgCl2 buffered with 5 mM HEPES/NaOH, pH 7.5) supplemented with 100 mg l^−1 gentamycin). Defolliculated and healthy-looking stage V-VI oocytes were manually selected for RNA microinjection. The RNA was generated as following: The codon-optimized sequences of PfCRT variants were cloned into the pSP64T expression vector. After vector linearization using the restriction endonucleases BamHI or SalI (New England Biolabs), transcription was performed using the in vitro SP6 mMessage mMachine Kit (Ambion)[34]. The obtained RNA was kept at −80 °C and diluted with nuclease-free water to a concentration of 0.6 μg μl^−1. Precision-bore glass capillary tubes (3.5-inch glass capillaries; Drummond Scientific Co.) were pulled on a vertical puller (P-87 Flaming/Brown micropipette puller, Sutter Instrument Co.), graduated, and placed on a microinjector (Nanoject II Auto-Nanoliter Injector, Drummond Scientific Co.). 50 nl of nuclease-free water alone (control oocytes) or 50 nl of 0.6 μg μl^−1 RNA were injected under stereomicroscopic control. Injected oocytes were incubated for 46–72 h at 18 °C with twice-daily buffer changes before usage in experiments.\nDrug uptake assays were performed as described previously[21],[22],[24],[34]. […] The direction of radio-labeled drug transport is here from the mostly acidic extracellular solution (pH 4.5 or 6.0, as indicated) into the oocyte cytosol (pH ∼ 7.2), which corresponds to the efflux of drug from the acidic digestive vacuole (pH 5.2) into the parasite cytoplasm (pH 7.2). The topology of PfCRT in the oolemma is such that both the N- and C-terminus face the extracellular milieu[3],[22]. In the parasite, the N- and C-terminus face the lumen of the digestive vacuole. CQ uptake kinetics were performed by incubating oocytes in ND96 buffer adjusted to a pH of 4.5, 5.0, 5.5, or 6.0 and supplemented with 50 nM [^3H]CQ and one of 7 different CQ concentrations (10 µM, 50 µM, 100 µM, 200 µM, 300 µM, 400 µM, 500 µM CQ). The reaction was stopped at the 60 min time point, which is in the linear uptake range[22],[34] (Supplementary Fig. 17). For determination of the amount of drug uptake for each oocyte, the reaction medium was removed and the oocytes were washed three times with 2 ml of ice-cold ND96 buffer. Each oocyte was individually transferred to a scintillation vial containing 5% sodium dodecyl sulfate (200 μl) for lysis. The radioactivity of each sample was measured using a liquid scintillation analyzer Tri-Carb 4910 TR (PerkinElmer). Oocytes that were injected with water instead of RNA were analyzed in parallel, representing the uptake of a drug by diffusion and/or endogenous permeation pathways. The resulting value represents the “background“ level of drug accumulation in oocytes (in-depth discussion in[22]). […]", "key": {"[1]": {"settings": "D410A, 50 µM CQ, 1 h, mean ± SEM"}}, "note": "Where “and” joins values, the source holds several entries; their conditions need not be identical. Equal entries are not always repeated.", "data": [{"smiles": "CCN(CC)CCCC(C)Nc1ccnc2cc(Cl)ccc12", "note": "(stereo not drawn) [CQ, chloroquine]", "values": [{"measurement": "Activity at pH 4.5", "setting": "[1]", "value": "2.38 ± 0.18", "unit": "pmol h-1 oocyte-1"}, {"measurement": "Activity at pH 6.0", "setting": "[1]", "value": "5.09 ± 0.24", "unit": "pmol h-1 oocyte-1"}, {"measurement": "R-value", "setting": "D410A, CQ transport at pH 4.5 / pH 6.0", "value": "0.47 ± 0.06"}, {"measurement": "D410A transport activity pH 4.5", "setting": "pH 4.5, single replicates, Fig 1d left", "value": "2.74 pmol oocyte-1 h-1 and 1.99 pmol oocyte-1 h-1 and 2.40 pmol oocyte-1 h-1"}, {"measurement": "D410A R-value", "setting": "pH 4.5 vs pH 6.0, Fig 1d left", "value": "0.60 and 0.35 and 0.47"}, {"measurement": "D410A transport activity pH 6.0", "setting": "pH 6.0, single replicates, Fig 1d left", "value": "4.58 pmol oocyte-1 h-1 and 5.61 pmol oocyte-1 h-1 and 5.09 pmol oocyte-1 h-1"}]}]}
